The source of these data is the supplement of paper PMC10307832.

Experiment in all cases: relative viability (nuclei count vs DMSO), 5 days (fraction); higher = more cells survive
Compound in the experiment “VE-821 + Dasatinib”: CS(=O)(=O)c1ccc(-c2cnc(N)c(C(=O)Nc3ccccc3)n2)cc1 [VE-821] + Cc1nc(Nc2ncc(C(=O)Nc3c(C)cccc3Cl)s2)cc(N2CCN(CCO)CC2)n1 [Dasatinib] (partner 0.075 µM)
In short, it runs like this: (§1)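 The day after seeding in 1536-well plates, lung cancer cell lines were treated by pin tool with a single drug, or with a fixed anchor-drug dose together with five library-drug doses (not always all listed) in √10 steps. After 5 days, a combined fix-and-stain solution (final 0.05% Triton X-100, 1% formaldehyde, 1 ug/ml Hoechst) was added. Nuclei counted on 4× images gave relative viability as treated counts over vehicle counts, reported as the median of duplicate plates.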

Compound in the experiment “Vismodegib + Tozasertib”: CS(=O)(=O)c1ccc(C(=O)Nc2ccc(Cl)c(-c3ccccn3)c2)c(Cl)c1 [Vismodegib] + Cc1cc(Nc2cc(N3CCN(C)CC3)nc(Sc3ccc(NC(=O)C4CC4)cc3)n2)n[nH]1 [Tozasertib] (partner 0.1 µM)
The essentials: as §1

Compound in the experiment “Vismodegib + Vorinostat”: CS(=O)(=O)c1ccc(C(=O)Nc2ccc(Cl)c(-c3ccccn3)c2)c(Cl)c1 [Vismodegib] + O=C(CCCCCCC(=O)Nc1ccccc1)NO [Vorinostat] (partner 1 µM)
In short, it runs like this: as §1

Compound in the experiment “Vismodegib + Olaparib”: CS(=O)(=O)c1ccc(C(=O)Nc2ccc(Cl)c(-c3ccccn3)c2)c(Cl)c1 [Vismodegib] + O=C(c1cc(Cc2n[nH]c(=O)c3ccccc23)ccc1F)N1CCN(C(=O)C2CC2)CC1 [Olaparib] (partner 8 µM)
The essentials: as §1

For UMC-11, the relative viability was 0.553 with VE-821 + Dasatinib (first compound 0.08 µM); 0.44 in the experiment with VE-821 + Dasatinib (first compound 0.253 µM); 0.516 in the experiment with VE-821 + Dasatinib (first compound 0.8 µM); 0.524 with VE-821 + Dasatinib (first compound 2.53 µM); 0.374 with VE-821 + Dasatinib (first compound 8 µM); 0.184 with Vismodegib + Tozasertib (first compound 0.08 µM). The relative viability with Vismodegib + Tozasertib (first compound 0.253 µM) was 0.196; with Vismodegib + Tozasertib (first compound 0.8 µM), 0.168; with Vismodegib + Tozasertib (first compound 2.53 µM), 0.194; with Vismodegib + Tozasertib (first compound 8 µM) it was 0.225; in the experiment with Vismodegib + Vorinostat (first compound 0.08 µM), 0.392; with Vismodegib + Vorinostat (first compound 0.253 µM), 0.373. In addition, the relative viability came out at 0.415 with Vismodegib + Vorinostat (first compound 0.8 µM); 0.35 with Vismodegib + Vorinostat (first compound 2.53 µM); 0.462 with Vismodegib + Vorinostat (first compound 8 µM); 0.416 with Vismodegib + Olaparib (first compound 0.08 µM); 0.361 with Vismodegib + Olaparib (first compound 0.253 µM); 0.376 with Vismodegib + Olaparib (first compound 0.8 µM). Besides, the relative viability with Vismodegib + Olaparib (first compound 2.53 µM) worked out at 0.473; in the experiment with Vismodegib + Olaparib (first compound 8 µM), 0.373.
